The values that follow come from US10646553B2, “Use of recombinant human calcineurin B subunit” (HAIKOU QILI PHARMACEUTICAL CO., LTD., priority 2015, dated 2020).

Data set [1] in a line: Survival of tumour-bearing animals during the experiment. Format: in vivo, BALB/c nude mice. The text has this:
(§1) In one embodiment of the present invention, according to the “Technical Guidelines for Non-Clinical Studies of Cytotoxic Antitumor Drugs” and “Guidelines for Pharmacodynamics of Antitumor Drugs”, IVIS Kinetics (a small animal live imaging system) was used to dynamically analyze the therapeutic effect of rhCNB for injection on the BALB/c nude mice bearing the human gastric cancer cell MGC-803 carcinoma in situ. Firstly, a BALB/c nude mouse model bearing subcutaneous transplantation tumor of human gastric cancer cell MGC-803 was established, and then a BALB/c nude mouse model bearing transplantation tumor in situ of human gastric cancer cell MGC-803 was established. […] Each experimental group is administered once daily for 15 consecutive days, except that the positive control high-dose administration group of cisplatin for injection is administered for 5 days. […] Animals were examined once using Caliper IVIS Kinetics (small animal live imaging system) before the first administration (on the administration day), every other 3 days after the first administration and on the 7th day after the last administration, respectively, and body weight was measured before each examination. At the end of the last examination, animals were sacrificed and roughly necropsied, and organs inoculated with tumor (including tumor tissues) were removed for pathological examination and immunohistochemical assay of apoptosis.
The high-, medium-, low-dose groups and progressively increasing-dose group of the test sample were administered once daily for 15 consecutive days;

The test system of data set [2] is transplantation tumor of human gastric cancer cell MGC-803 carcinoma in situ. Put plainly: Bioluminescence detection (IVIS small animal live imaging) and necropsy of orthotopic MGC-803 tumour in nude mice. Format: in vivo, BALB/c nude mice.
Source text: as §1
Human gastric cancer cell MGC-803 was routinely cultured in vitro, digested, centrifuged, and then prepared into a cell suspension with a concentration of approximately 1×10^7 cells/mL. The cells were inoculated subcutaneously into the right armpit of mice at an amount of 0.2 mL/mouse.
Well-grown subcutaneously transplanted tumors were removed and cut into tumor tissue blocks with a size of approximately 2×2×1 mm for use. Animals to be inoculated were feed 12 hours before surgical operation and subjected to gas anesthesia with isoflurane. The anaesthetized animals were placed in supine position. The skin 2˜5 mm below the xiphoid process was cut horizontally layer-by-layer on the left side to give an opening of about 1 cm. Stomach was pull out gently using a pincette and exposed. The tumor tissue block was placed above the side near the pylorus of greater curvature of stomach of the nude mice with surgical suture #1 by “purse-string suture”, so that the tumor tissue block was wrapped therein. The skin was sutured layer by layer and disinfected by Entoiodine, and then the animals were returned back to the cage for normal feeding. 7 days after surgery, the animals were examined using the small animal live imaging system, grouped, and administrated.
The route for administration was by tail vein injection.
Animals were detected once using Caliper IVIS Kinetics small animal live imaging system at the following time point: before the first administration (on the administration day), every other 3 days after the first administration, and on the 7th day after the last administration, respectively. The body weight was measured before each detection. A substrate solution (with a concentration of 15 mg/mL) was injected intraperitoneally according to 0.1 mL/10 g body weight and a bioluminescence detection was performed 10˜15 min after injection.
The data obtained from the experiments were statistically analyzed using SPSS analysis software, and the significance of difference between the administration groups and the vehicle control group, and among each administration group was compared.

Where [3] appears, read: X, 2 mg/kg once daily 15 d, d12.
The mark [4] stands for this setting: X, 2 mg/kg once daily 15 d, d15.
The mark [5] stands for this setting: SD, low-dose 1 mg/kg once daily 15 d, d3.
Setting [6] is: SD, low-dose 1 mg/kg once daily 15 d, d6.
Setting [7] is: SD, low-dose 1 mg/kg once daily 15 d, d9.
The mark [8] stands for this setting: SD, low-dose 1 mg/kg once daily 15 d, d12.
Setting [9] is: SD, low-dose 1 mg/kg once daily 15 d, d15.
Where [10] appears, read: SG, high-dose 5 mg/kg once daily 5 d, d3.
The mark [11] stands for this setting: SG, high-dose 5 mg/kg once daily 5 d, d6.

Regarding `CC[C@@]1(O)C(=O)OCc2c1cc1n(c2=O)Cc2cc3cc(O)ccc3nc2-1` [hydroxycamptothecin for injection, hydroxycamptothecin], the “number of surviving animals” value in data set [1] (X, 2 mg/kg once daily 15 d, d0 before administration) was “(10)”; in data set [1] (X, 2 mg/kg once daily 15 d, d3), “(10)”; in data set [1] (X, 2 mg/kg once daily 15 d, d6) it was “(9)”; in data set [1] (X, 2 mg/kg once daily 15 d, d9), “(9)”; in data set [1] (setting [3]) it was “(9)”; in data set [1] (setting [4]) it was “(9)”. For the same molecule, in data set [1] (X, 2 mg/kg once daily 15 d, d21 (7th day after last administration)), the “number of surviving animals” value is “(7)”. In addition, the “Number of animals in which tumor is not detectable and not observed” value is listed as 0 in data set [2] (X, 2 mg/kg once daily 15 d, d0); 0 in data set [2] (X, 2 mg/kg once daily 15 d, d3); 0 in data set [2] (X, 2 mg/kg once daily 15 d, d6); 0 in data set [2] (X, 2 mg/kg once daily 15 d, d9); 0 in data set [2] (setting [3]); 0 in data set [2] (setting [4]). Also, the “Number of animals in which tumor is not detectable and not observed” value in data set [2] (X, 2 mg/kg once daily 15 d, recovery period d7) is listed as 0.

For the molecule `N.N.[Cl][Pt][Cl]` [cisplatin for injection, cisplatin], the “number of surviving animals” value is “(10)” in data set [1] (SD, low-dose 1 mg/kg once daily 15 d, d0 before administration); “(10)” in data set [1] (setting [5]); “(10)” in data set [1] (setting [6]); “(10)” in data set [1] (setting [7]); “(10)” in data set [1] (setting [8]); “(9)” in data set [1] (setting [9]). The “number of surviving animals” value in data set [1] (SD, low-dose 1 mg/kg once daily 15 d, d21 (7th day after last administration)) is “(4)”; in data set [1] (SG, high-dose 5 mg/kg once daily 5 d, d0 before administration), “(10)”; in data set [1] (setting [10]) it was “(10)”; in data set [1] (setting [11]), “(10)”. Moreover, in data set [1] (during the experiment, preliminarily believed), the “cause of death of the animals” value is listed as “mainly due to drug toxicity”. Further, the “Number of animals in which tumor is not detectable and not observed” value is reported as 0 in data set [2] (SD, low-dose 1 mg/kg once daily 15 d, d0); 0 in data set [2] (setting [5]); 0 in data set [2] (setting [6]); 0 in data set [2] (setting [7]); 0 in data set [2] (setting [8]); 0 in data set [2] (setting [9]). The “Number of animals in which tumor is not detectable and not observed” value is 0 in data set [2] (SD, low-dose 1 mg/kg once daily 15 d, recovery period d7); 0 in data set [2] (SG, high-dose 5 mg/kg once daily 5 d, d0); 0 in data set [2] (setting [10]); 0 in data set [2] (setting [11]); 0 in data set [2] (SG, high-dose 5 mg/kg once daily 5 d, d9); 0 in data set [2] (SG, high-dose 5 mg/kg once daily 5 d, d12). In addition, the “Number of animals in which tumor is not detectable and not observed” value in data set [2] (SG, high-dose 5 mg/kg once daily 5 d, d15) stood at 0; in data set [2] (SG, high-dose 5 mg/kg once daily 5 d, recovery period d7), 0. In data set [2] (positive control high-dose group 5 mg/kg, after the 6th day administration), the bioluminescence detection data entry was “sharp increase”.
